In patent US5770595A, “Oxime substituted therapeutic compounds” (Cell Therapeutics, Inc., priority 1994, dated 1998):

Legend:
[1] = test system: P388D1 cells; experiment: IL-1α release from LPS-stimulated P388D1 cells; format: cell-based, murine; conditions: 0.25 mM, LPS 10 μg/ml
Experimental: (§1) This example illustrates the ability of inventive compound no. 1521 to inhibit IL-1α release from P388D1 cells when stimulated with LPS. This assay is a model for septic shock. P388D1 cells (10^5) were treated with LPS at 10 μg/ml in RPMI media containing 10% fetal calf serum. Supernatants were assayed for IL-1α by an ELISA technique at various times following LPS stimulation. The cells were treated one hour prior to LPS stimulation with 0.25 mM of compound no. 1521.

[2] = test system: murine peritoneal macrophages; experiment: IL-1α release from LPS-stimulated murine peritoneal macrophages; format: cell-based; conditions: 0.25 mM, LPS 10 μg/ml
Experimental: as §1, with “from murine peritoneal macrophages” for “from P388D1 cells”, “shock. Macrophages” for “shock. P388D1 cells”, “mM” for “mM of compound no.”

[3] = test system: U937 cells / activated human umbilical vein endothelial cells (HUVEC); experiment: adhesion of U937 cells to TNF-activated HUVEC; format: cell-based; conditions: human TNF 20 ng/ml, 12 hours
Experimental: Another assay measures the effects of drug to inhibit adhesion of U937 cells to TNF-activated HUVEC cells In this experiment, HUVEC cells are induced with human TNF-α (20 ng/ml) and drug at varying concentrations for 14-16 hrs. U937 cells (a human monocyte cell line) are incubated and labeled with BCECF (10 μg/ml), a fluorescent dye. The U937 cell preparation (2.5×10^4 cells per well) is layered on top of the activated HUVEC cells. The cells are reverse spun to remove partially adhering and nonadhering U937 cell. The adherent U937 cells are measured by fluorescence on a fluorescent plate reader.
1521 to inhibit adhesion of U937 cells to activated human umbilical vein endothelial cells (HUVEC). HUVEC cells were activated with 20 ng/ml of human TNF for 12 hours. Compound no. 1521 was added to samples one hour prior to adding TNF. U937 cells preloaded with a fluorescent dye were added to the HUVEC cells and adhesion measured after washing. Compound no. […] Background adhesion of U937 cells to non-activated HUVEC is shown as a dashed line.

[4] = test system: L929 cells; experiment: TNF-α-mediated cytotoxicity in L929 cells; format: cell-based, murine; conditions: human TNF-α 300 pg/ml; FIG. 9
Experimental: An inventive compound can be assayed for activity protecting TNF-mediated cytotoxicity. In this assay, L929 murine fibroblast cells (10^4 cells per well) are incubated with either compounds at varying doses and media control for two hrs. […] The cells plus (or minus) drug plus TNF were incubated for 40 hrs at 37° C. The media is removed and replaced with fresh media containing 2% serum and 10 μg/ml of BCECF fluorescent dye and incubated for 30 min. The fluorescent dye-containing media is removed and replaced with PBS (phosphate buffered saline) and each well was assayed for fluorescence.
This assay is a model for septic shock. L929 cells (10^5) were treated with human TNF-α at 300 pg/ml in RPMI media containing 10% fetal calf serum with or without compound no. One day later, the cells were stained for viability using the fluorescent dye BCECF and fluorescence of the samples was analyzed using a Milipore plate reader.

[5] = test system: human stromal cells; experiment: proliferation of human stromal cells stimulated with PDGF; format: cell-based; conditions: 50 ng/ml PDGF-BB
Experimental: Another assay for measuring activity of the inventive compounds involves determining PDGF (platelet derived growth factor) proliferative response using human-derived stromal cells. Human stromal cells are plated (e.g., about 2000 cells per well) in defined media (e.g., 69% McCoy's, 12.5% fetal calf serum, 12.5% horse serum, 1% antibiotics, 1% glutamine, 1% vitamin supplement, 0.8% essential amino acids, 1% sodium pyruvate, 1% sodium bicarbonate, 0.4% non-essential amino acids and 0.36% hydrocortisone). Two to three days later, the stromal cells are starved in serum-free media. Twenty four hours later, the cells are treated with a stimulating agent, such as PDGF-AA, PDGF-BB or basic FGF (fibroblast growth factor) with or without IL-1α or TNF, and tritiated thymidine. Cell proliferation is determined by liquid scintillation counting.
This example illustrates the ability of inventive compounds nos. […] This assay is a model for restenosis and treatment of atherosclerosis and coronary artery disease. Stromal cells were starved in serum-free media for one day and then stimulated with 50 ng/ml PDGF-BB. The drugs were added at the indicated concentrations one hour prior to PDGF stimulation. Tritiated thymidine was added for one day at the time of PDGF stimulation and the cells were harvested and counted by liquid scintillation counting 24 hours later. […]

[6] = test system: murine thymocyte; experiment: thymocyte proliferation stimulated by ConA and IL-2; format: cell-based, murine (female Balb/C mice); conditions: IL-2 20 ng/ml; drug two hours prior; FIG. 4
Experimental: A thymocyte costimulator assay is conducted to evaluate the inventive compounds to inhibit activation and proliferation of thymocytes caused by stimulation with Con A and interleukin-1 (IL-1), or […]. Thymuses are obtained from mice (e.g., female Balb/C mice) and the thymuses are removed and dissociated into culture media (e.g., RPMI 1640 without serum supplementation). The dissociated thymus tissue and cell suspension is transferred to centrifuge tubes and allowed to settle, washed with HBSS and resuspended in serum-supplemented culture media (e.g., RPMI 1640 with 10% fetal calf serum). Any contaminating red cells are lysed, and viable cells are resuspended and counted. Thymocytes are plated (e.g., 96-well plates at a density of 2×10^5 cells/well) and a stimulating agent, such as Con A, IL-1 (e.g., IL-1α) or IL-2 is added to the well. The cells are incubated for 4 days at 37° C. On the fourth day, the cells are pulsed with tritiated thymidine and cell proliferation determined. […]
1522 on inhibition of thymocyte proliferation stimulated by ConA and interleukin-2 (IL-2) (20 ng/ml). Compound no. […]
Thymuses, obtained from normal, female Balb/C mice, were dissociated and plated into 96-well plates at a density of 2×10^5 cells/well. […] The amount of tritiated thymidine dye incorporated by the harvested cells was determined in a liquid scintillation counter. […]

| Structure (SMILES) | inhibition of IL-1α release [1] | inhibition of IL-1α release [2] | adhesion of U937 cells to activated HUVEC [3] | protection of L929 cells from TNF-induced cytotoxicity [4] | inhibition of proliferation of stromal cells stimulated with PDGF [5] | inhibition of thymocyte proliferation, ConA + IL-2 [6] |
| --- | --- | --- | --- | --- | --- | --- |
| CC(CCCCn1c(=O)c2c(ncn2C)n(C)c1=O)=NO [Compound no. 1521] | inhibited IL-1α release | inhibited IL-1α release | reduced adhesion | inhibited TNF-induced cytotoxicity in a dose dependent manner | strongly inhibit proliferation of human stromal cells |  |
| CON=C(C)CCCCn1c(=O)c2c(ncn2C)n(C)c1=O [Compound no. 1522] |  |  |  |  | strongly inhibit proliferation of human stromal cells | inhibited thymocyte proliferation at the higher doses tested |
